Source: paper PMC6732734 (Heliyon, 2019)

Experiment: In vivo gentamicin release / pharmacokinetics after tail vein injection
Design: species or system Wistar rats
Details: rat

AUC(0-inf) (male, Wistar, plasma, iv, 2 mg): 203 µg·h/mL
Cmax (male, Wistar, plasma, iv, 2 mg): 8.4 µg/mL
Tmax (male, Wistar, plasma, iv, 2 mg): 1 h
Vd (male, Wistar, plasma, iv, 2 mg): 0.1 L/kg
clearance (male, Wistar, plasma, iv, 2 mg): 5 mL/h/kg
time up to which gentamicin was detectable in the plasma (intravenous): up to 6 h
Compound: CNC(C)C1CCC(N)C(OC2C(N)CC(N)C(OC3OCC(C)(O)C(NC)C3O)C2O)O1 (stereo not drawn) [Pure drug, Gentamicin]
